PubChem BioAssay (NCI)
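At the GI50, growth is halved. TGI marks complete inhibition of growth.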

Experiments:
Experiment in all cases: NCI anticancer screen, dose series, 384-well format
786-0 renal = test system: 786-0 renal
A498 renal = test system: A498 renal
A549 NSCLC = test system: A549 NSCLC
ACHN renal = test system: ACHN renal
BT-549 breast = test system: BT-549 breast
CAKI-1 renal = test system: CAKI-1 renal
CCRF-CEM leukemia = test system: CCRF-CEM leukemia
COLO 205 colon = test system: COLO 205 colon
DU-145 prostate = test system: DU-145 prostate
EKVX NSCLC = test system: EKVX NSCLC
HCC-2998 colon = test system: HCC-2998 colon
HCT-116 colon = test system: HCT-116 colon
HCT-15 colon = test system: HCT-15 colon
HL-60(TB) leukemia = test system: HL-60(TB) leukemia
HOP-62 NSCLC = test system: HOP-62 NSCLC
HOP-92 NSCLC = test system: HOP-92 NSCLC
HS 578T breast = test system: HS 578T breast
HT29 colon = test system: HT29 colon
IGROV1 ovarian = test system: IGROV1 ovarian
K-562 leukemia = test system: K-562 leukemia
KM12 colon = test system: KM12 colon
LOX IMVI melanoma = test system: LOX IMVI melanoma
M14 melanoma = test system: M14 melanoma
MALME-3M melanoma = test system: MALME-3M melanoma
MCF7 breast = test system: MCF7 breast
MDA-MB-231 breast = test system: MDA-MB-231 breast
MDA-MB-435 melanoma = test system: MDA-MB-435 melanoma
MDA-MB-468 breast = test system: MDA-MB-468 breast
MOLT-4 leukemia = test system: MOLT-4 leukemia
NCI-H226 lung = test system: NCI-H226 lung
NCI-H23 lung = test system: NCI-H23 lung
NCI-H322M lung = test system: NCI-H322M lung
NCI-H460 NSCLC = test system: NCI-H460 NSCLC
NCI-H522 lung = test system: NCI-H522 lung
NCI/ADR-RES ovarian = test system: NCI/ADR-RES ovarian
OVCAR-3 ovarian = test system: OVCAR-3 ovarian
OVCAR-4 ovarian = test system: OVCAR-4 ovarian
OVCAR-5 ovarian = test system: OVCAR-5 ovarian
OVCAR-8 ovarian = test system: OVCAR-8 ovarian
PC-3 prostate = test system: PC-3 prostate
RPMI-8226 leukemia = test system: RPMI-8226 leukemia
RXF 393 renal = test system: RXF 393 renal
SF-268 CNS = test system: SF-268 CNS
SF-295 CNS = test system: SF-295 CNS
SF-539 CNS = test system: SF-539 CNS
SK-MEL-2 melanoma = test system: SK-MEL-2 melanoma
SK-MEL-28 melanoma = test system: SK-MEL-28 melanoma
SK-MEL-5 melanoma = test system: SK-MEL-5 melanoma
SK-OV-3 ovarian = test system: SK-OV-3 ovarian
SN12C renal = test system: SN12C renal
SNB-19 CNS = test system: SNB-19 CNS
SNB-75 CNS = test system: SNB-75 CNS
SR leukemia = test system: SR leukemia
SW-620 colon = test system: SW-620 colon
T-47D breast = test system: T-47D breast
TK-10 renal = test system: TK-10 renal
U251 glioblastoma = test system: U251 glioblastoma
UACC-257 melanoma = test system: UACC-257 melanoma
UACC-62 melanoma = test system: UACC-62 melanoma

## Nc1ncn([C@H]2CC(O)[C@@H](CO)S2)c(=O)n1 (stereo partly specified)
786-0 renal
  GI50: 178 nM
  TGI: 10.9 µM
A498 renal
  GI50: 146 nM
  TGI: 2650 nM
A549 NSCLC
  GI50: 155 nM
  TGI: 3.05 µM
ACHN renal
  GI50: 111 nM
  TGI: 11.7 µM
BT-549 breast
  GI50: 619 nM
  TGI: 6.52 µM
CAKI-1 renal
  GI50: 266 nM
  TGI: 14.7 µM
CCRF-CEM leukemia
  GI50: 17.3 nM
  TGI: 595 nM
COLO 205 colon
  GI50: 239 nM
  TGI: 1760 nM
DU-145 prostate
  GI50: 366 nM
EKVX NSCLC
  GI50: 3.16 µM
  TGI: > 75.4 µM
HCC-2998 colon
  GI50: 124 nM
  TGI: 3.28 µM
HCT-116 colon
  GI50: 55.8 nM
  TGI: 5.34 µM
HCT-15 colon
  GI50: 1090 nM
  TGI: 22.1 µM
HL-60(TB) leukemia
  GI50: 114 nM
  TGI: 573 nM
HOP-62 NSCLC
  GI50: 417 nM
  TGI: 5.26 µM
HOP-92 NSCLC
  GI50: 284 nM
  TGI: > 100 µM
HS 578T breast
  GI50: 1580 nM
  TGI: 17.9 µM
HT29 colon
  GI50: 1360 nM
  TGI: > 77.8 µM
IGROV1 ovarian
  GI50: 2780 nM
  TGI: > 100 µM
K-562 leukemia
  GI50: 200 nM
  TGI: 12.6 µM
KM12 colon
  GI50: 441 nM
  TGI: > 100 µM
LOX IMVI melanoma
  GI50: 534 nM
  TGI: 3.41 µM
M14 melanoma
  GI50: 2340 nM
  TGI: 17.6 µM
MALME-3M melanoma
  GI50: 257 nM
  TGI: 2030 nM
MCF7 breast
  GI50: 256 nM
  TGI: > 100 µM
MDA-MB-231 breast
  GI50: 251 nM
  TGI: 3.42 µM
MDA-MB-435 melanoma
  GI50: 1120 nM
  TGI: > 100 µM
MDA-MB-468 breast
  GI50: 153 nM
  TGI: 741 nM
MOLT-4 leukemia
  TGI: 14.4 nM
NCI-H226 lung
  GI50: 1710 nM
  TGI: 20.7 µM
NCI-H23 lung
  GI50: 272 nM
  TGI: 1800 nM
NCI-H322M lung
  GI50: 1320 nM
  TGI: > 100 µM
NCI-H460 NSCLC
  GI50: 39.9 nM
  TGI: 491 nM
NCI-H522 lung
  GI50: 50.1 nM
  TGI: 529 nM
NCI/ADR-RES ovarian
  GI50: 139 nM
  TGI: 1260 nM
OVCAR-3 ovarian
  GI50: 461 nM
  TGI: 7.09 µM
OVCAR-4 ovarian
  GI50: 2610 nM
  TGI: > 100 µM
OVCAR-5 ovarian
  GI50: 3.19 µM
  TGI: > 100 µM
OVCAR-8 ovarian
  GI50: 82.2 nM
  TGI: 2690 nM
PC-3 prostate
  GI50: 1270 nM
  TGI: > 75.1 µM
RPMI-8226 leukemia
  GI50: 622 nM
  TGI: 2680 nM
RXF 393 renal
  GI50: 839 nM
  TGI: 15.1 µM
SF-268 CNS
  GI50: 1240 nM
  TGI: 24 µM
SF-295 CNS
  GI50: 7.65 µM
  TGI: > 74.7 µM
SF-539 CNS
  GI50: 2020 nM
  TGI: 45 µM
SK-MEL-2 melanoma
  GI50: 253 nM
  TGI: 691 nM
SK-MEL-28 melanoma
  GI50: 340 nM
  TGI: 2750 nM
SK-MEL-5 melanoma
  GI50: 70.6 nM
  TGI: 1330 nM
SK-OV-3 ovarian
  GI50: 1820 nM
  TGI: 33.6 µM
SN12C renal
  GI50: 251 nM
  TGI: > 39.9 µM
SNB-19 CNS
  GI50: 442 nM
  TGI: > 100 µM
SNB-75 CNS
  GI50: 7.75 µM
  TGI: > 74.1 µM
SR leukemia
  GI50: 123 nM
  TGI: 808 nM
SW-620 colon
  GI50: 377 nM
  TGI: 16.2 µM
T-47D breast
  GI50: 7.69 µM
  TGI: > 100 µM
TK-10 renal
  GI50: 4.22 µM
  TGI: > 100 µM
U251 glioblastoma
  GI50: 1920 nM
  TGI: 24.8 µM
UACC-257 melanoma
  GI50: 4.76 µM
  TGI: 21.4 µM
UACC-62 melanoma
  GI50: 1230 nM
  TGI: 17.3 µM
